From PMC12406204 (Journal of Medicinal Chemistry, 2025)

Assays:
CB2R = CB2R (Homo sapiens, UniProt P34972); assay: CB2R radioligand binding competition ([3H]CP55,940); parameters: expressed in transfected cells; host or cells: HEK-293T (HEK-CB2 cell line); conditions: for Ki: displacement of [3H]CP 55,940, membranes of HEK-293T cells, n = 3; for SI Ki CB1R/Ki CB2R: selectivity index, affinity ratio; for CB2R % at 1 μM: percentage displacement of specific [3H]CP 55,940 binding at 1 μM, n = 2
CB1R = CB1R (Homo sapiens, UniProt P21554); assay: CB1R radioligand binding competition ([3H]CP55,940); parameters: host or cells: CHO-CB1 C3 cell line; conditions: for Ki: displacement of [3H]CP 55,940, membranes of CHO-CB1 C3 cells, n = 3; for CB1R % at 1 μM: percentage displacement of specific [3H]CP 55,940 binding at 1 μM, n = 2
Sequence of CB1R (P21554 whole entry): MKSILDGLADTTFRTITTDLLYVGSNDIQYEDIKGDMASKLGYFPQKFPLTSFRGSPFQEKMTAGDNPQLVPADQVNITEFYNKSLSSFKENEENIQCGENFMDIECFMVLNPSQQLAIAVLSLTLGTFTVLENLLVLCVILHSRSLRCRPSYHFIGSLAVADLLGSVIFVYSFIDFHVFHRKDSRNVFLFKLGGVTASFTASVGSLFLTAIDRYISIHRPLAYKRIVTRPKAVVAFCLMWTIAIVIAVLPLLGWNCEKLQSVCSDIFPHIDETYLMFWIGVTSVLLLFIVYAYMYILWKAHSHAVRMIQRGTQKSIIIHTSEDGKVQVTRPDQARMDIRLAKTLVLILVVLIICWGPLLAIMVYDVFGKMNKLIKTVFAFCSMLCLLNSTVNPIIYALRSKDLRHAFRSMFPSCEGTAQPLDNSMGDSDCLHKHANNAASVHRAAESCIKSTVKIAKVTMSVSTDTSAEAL

Sequence of CB2R (P34972 whole entry): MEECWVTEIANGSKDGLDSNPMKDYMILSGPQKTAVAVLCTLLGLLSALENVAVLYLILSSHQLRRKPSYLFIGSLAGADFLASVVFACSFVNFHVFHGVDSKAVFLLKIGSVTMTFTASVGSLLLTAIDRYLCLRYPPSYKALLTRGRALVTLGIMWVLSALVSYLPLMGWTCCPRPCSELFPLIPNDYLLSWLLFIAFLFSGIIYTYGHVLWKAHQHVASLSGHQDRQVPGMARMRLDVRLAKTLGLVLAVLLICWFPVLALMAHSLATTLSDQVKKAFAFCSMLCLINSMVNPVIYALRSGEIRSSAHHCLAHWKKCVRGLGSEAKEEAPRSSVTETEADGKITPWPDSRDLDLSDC

| SMILES | Ki (CB2R) [nM] | SI Ki CB1R/Ki CB2R (CB2R) | Ki (CB1R) [nM] | CB2R % at 1 μM (CB2R) [%] | CB1R % at 1 μM (CB1R) [%] |
| --- | --- | --- | --- | --- | --- |
| CCCCCn1cc(C(=O)N2CCC[C@H]2C(=O)OC)c2ccccc21 [15a] | 189 ± 10 | 0.6 | 121 ± 6 | – | – |
| CCCCCn1cc(C(=O)N2CCC[C@@H]2C(=O)OC)c2ccccc21 [15b] | – | – | – | 25 | 4 |
| COC(=O)[C@@H]1CCCN1C(=O)c1cn(CCCCCF)c2ccccc12 [15c] | 71.7 ± 2 | 0.8 | 55.9 ± 2.7 | – | – |
| COC(=O)[C@H]1CCCN1C(=O)c1cn(CCCCCF)c2ccccc12 [15d] | – | – | – | 26 | 3 |
| COC(=O)[C@@H]1CCCN1C(=O)c1cn(CC2CCCCC2)c2ccccc12 [15e] | 38.3 ± 2.1 | 0.3 | 11.3 ± 0.5 | – | – |
| COC(=O)[C@H]1CCCN1C(=O)c1cn(CC2CCCCC2)c2ccccc12 [15f] | 463 ± 11 | >100 | – | – | 32 |
| COC(=O)[C@@H]1CCCN1C(=O)c1cn(Cc2ccc(F)cc2)c2ccccc12 [15g] | 47.7 ± 1.9 | 0.3 | 14.4 ± 0.6 | – | – |
| COC(=O)[C@H]1CCCN1C(=O)c1cn(Cc2ccc(F)cc2)c2ccccc12 [15h] | 599 ± 13 | >100 | – | – | 10 |
| CCCCCn1nc(C(=O)N2CCC[C@H]2C(=O)OC)c2ccccc21 [15i] | 75.9 ± 2.2 | 4 | 337 ± 9 | – | – |
| CCCCCn1nc(C(=O)N2CCC[C@@H]2C(=O)OC)c2ccccc21 [15j] | 208 ± 5 | >100 | – | – | 4 |
| COC(=O)[C@@H]1CCCN1C(=O)c1nn(CCCCCF)c2ccccc12 [15k] | 41.9 ± 2.1 | 4 | 173 ± 5 | – | – |
| COC(=O)[C@H]1CCCN1C(=O)c1nn(CCCCCF)c2ccccc12 [15l] | 513 ± 3 | >100 | – | – | 1 |
| COC(=O)[C@@H]1CCCN1C(=O)c1nn(CC2CCCCC2)c2ccccc12 [15m] | 20.7 ± 0.6 | 3 | 73.4 ± 2.9 | – | – |
| COC(=O)[C@H]1CCCN1C(=O)c1nn(CC2CCCCC2)c2ccccc12 [15n] | 99.3 ± 2.8 | >100 | – | – | 2 |
| COC(=O)[C@@H]1CCCN1C(=O)c1nn(Cc2ccc(F)cc2)c2ccccc12 [15o] | 16.5 ± 1.1 | 3 | 46.2 ± 2.3 | – | – |
| COC(=O)[C@H]1CCCN1C(=O)c1nn(Cc2ccc(F)cc2)c2ccccc12 [15p] | 157 ± 4 | >100 | – | – | 5 |
| CCCCCn1cc(C(=O)N2CCCC[C@H]2C(=O)OC)c2ccccc21 [16a] | 114 ± 6 | 6 | 644 ± 13 | – | – |
| CCCCCn1cc(C(=O)N2CCCC[C@@H]2C(=O)OC)c2ccccc21 [16b] | 273 ± 4 | >100 | – | – | 18 |
| COC(=O)[C@@H]1CCCCN1C(=O)c1cn(CCCCCF)c2ccccc12 [16c] | 84.1 ± 1.9 | 8 | 716 ± 16 | – | – |
| COC(=O)[C@H]1CCCCN1C(=O)c1cn(CCCCCF)c2ccccc12 [16d] | 251 ± 7 | >100 | – | – | 24 |

| SMILES | Ki (CB2R) [nM] | SI Ki CB1R/Ki CB2R (CB2R) | Ki (CB1R) [nM] | CB2R % at 1 μM (CB2R) [%] | CB1R % at 1 μM (CB1R) [%] |
| --- | --- | --- | --- | --- | --- |
| COC(=O)[C@@H]1CCCCN1C(=O)c1cn(CC2CCCCC2)c2ccccc12 [16e] | 45.1 ± 1.7 | 3 | 122 ± 8 | – | – |
| COC(=O)[C@H]1CCCCN1C(=O)c1cn(CC2CCCCC2)c2ccccc12 [16f] | 93.1 ± 3.3 | >100 | – | – | 37 |
| COC(=O)[C@@H]1CCCCN1C(=O)c1cn(Cc2ccc(F)cc2)c2ccccc12 [16g] | 22.5 ± 1.1 | 4 | 90.3 ± 2.3 | – | – |
| COC(=O)[C@H]1CCCCN1C(=O)c1cn(Cc2ccc(F)cc2)c2ccccc12 [16h] | 109 ± 4 | >100 | – | – | 35 |
| COC(=O)[C@@H]1CCCCN1C(=O)c1nn(CCCCCF)c2ccccc12 [16k] | 10.6 ± 0.7 | 37 | 392 ± 5 | – | – |
| COC(=O)[C@H]1CCCCN1C(=O)c1nn(CCCCCF)c2ccccc12 [16l] | 127 ± 5 | >100 | – | – | 5 |
| COC(=O)[C@@H]1CCCCN1C(=O)c1nn(CC2CCCCC2)c2ccccc12 [16m] | 5.2 ± 0.4 | 31 | 162 ± 3 | – | – |
| COC(=O)[C@H]1CCCCN1C(=O)c1nn(CC2CCCCC2)c2ccccc12 [16n] | 164 ± 5 | >100 | – | – | 3 |
| COC(=O)[C@@H]1CCCCN1C(=O)c1nn(Cc2ccc(F)cc2)c2ccccc12 [16o] | 4.1 ± 0.12 | 16 | 65.4 ± 2.4 | – | – |
| COC(=O)[C@H]1CCCCN1C(=O)c1nn(Cc2ccc(F)cc2)c2ccccc12 [16p] | 48.4 ± 1.8 | >100 | – | – | – |
| CCCCCn1cc(C(=O)N2CCC[C@H]2C(N)=O)c2ccccc21 [17a] | – | – | – | 24 | 2 |
| CCCCCn1cc(C(=O)N2CCC[C@@H]2C(N)=O)c2ccccc21 [17b] | – | – | – | 17 | 3 |
| NC(=O)[C@@H]1CCCN1C(=O)c1cn(CCCCCF)c2ccccc12 [17c] | – | – | – | 15 | 1 |
| NC(=O)[C@H]1CCCN1C(=O)c1cn(CCCCCF)c2ccccc12 [17d] | – | – | – | 16 | 5 |
| NC(=O)[C@@H]1CCCN1C(=O)c1cn(CC2CCCCC2)c2ccccc12 [17e] | 288 ± 7 | >100 | – | – | 6 |
| NC(=O)[C@H]1CCCN1C(=O)c1cn(CC2CCCCC2)c2ccccc12 [17f] | 411 ± 16 | >100 | – | – | 3 |
| NC(=O)[C@@H]1CCCN1C(=O)c1cn(Cc2ccc(F)cc2)c2ccccc12 [17g] | – | – | – | 20 | 3 |
| NC(=O)[C@H]1CCCN1C(=O)c1cn(Cc2ccc(F)cc2)c2ccccc12 [17h] | – | – | – | 7 | 4 |
| CCCCCn1nc(C(=O)N2CCC[C@H]2C(N)=O)c2ccccc21 [17i] | – | – | – | 31 | 2 |
| CCCCCn1nc(C(=O)N2CCC[C@@H]2C(N)=O)c2ccccc21 [17j] | – | – | – | 28 | 3 |

| SMILES | Ki (CB2R) [nM] | SI Ki CB1R/Ki CB2R (CB2R) | Ki (CB1R) [nM] | CB2R % at 1 μM (CB2R) [%] | CB1R % at 1 μM (CB1R) [%] |
| --- | --- | --- | --- | --- | --- |
| NC(=O)[C@@H]1CCCN1C(=O)c1nn(CCCCCF)c2ccccc12 [17k] | – | – | – | 17 | 2 |
| NC(=O)[C@H]1CCCN1C(=O)c1nn(CCCCCF)c2ccccc12 [17l] | – | – | – | 25 | 4 |
| NC(=O)[C@@H]1CCCN1C(=O)c1nn(CC2CCCCC2)c2ccccc12 [17m] | – | – | – | 27 | 1 |
| NC(=O)[C@H]1CCCN1C(=O)c1nn(CC2CCCCC2)c2ccccc12 [17n] | – | – | – | 28 | 2 |
| NC(=O)[C@@H]1CCCN1C(=O)c1nn(Cc2ccc(F)cc2)c2ccccc12 [17o] | 628 ± 21 | >100 | – | – | 4 |
| NC(=O)[C@H]1CCCN1C(=O)c1nn(Cc2ccc(F)cc2)c2ccccc12 [17p] | – | – | – | 12 | 4 |
| CCCCCn1cc(C(=O)N2CCCC[C@H]2C(N)=O)c2ccccc21 [18a] | 111 ± 6 | >100 | – | – | 3 |
| CCCCCn1cc(C(=O)N2CCCC[C@@H]2C(N)=O)c2ccccc21 [18b] | 136 ± 5 | >100 | – | – | 10 |
| NC(=O)[C@@H]1CCCCN1C(=O)c1cn(CCCCCF)c2ccccc12 [18c] | 132 ± 4 | >100 | – | – | 7 |
| NC(=O)[C@H]1CCCCN1C(=O)c1cn(CCCCCF)c2ccccc12 [18d] | 169 ± 6 | >100 | – | – | 15 |
| NC(=O)[C@@H]1CCCCN1C(=O)c1cn(Cc2ccc(F)cc2)c2ccccc12 [18g] | 115 ± 5 | >100 | – | – | 21 |
| NC(=O)[C@H]1CCCCN1C(=O)c1cn(Cc2ccc(F)cc2)c2ccccc12 [18h] | 207 ± 9 | >100 | – | – | 3 |
| CCCCCn1nc(C(=O)N2CCCC[C@H]2C(N)=O)c2ccccc21 [18i] | 91.8 ± 4.9 | >100 | – | – | 2 |
| CCCCCn1nc(C(=O)N2CCCC[C@@H]2C(N)=O)c2ccccc21 [18j] | 145 ± 6 | >100 | – | – | 2 |
| NC(=O)[C@@H]1CCCCN1C(=O)c1nn(CCCCCF)c2ccccc12 [18k] | 151 ± 6 | >100 | – | – | 3 |
| NC(=O)[C@H]1CCCCN1C(=O)c1nn(CCCCCF)c2ccccc12 [18l] | 143 ± 5 | >100 | – | – | 3 |
| NC(=O)[C@@H]1CCCCN1C(=O)c1nn(CC2CCCCC2)c2ccccc12 [18m] | 59.5 ± 2.8 | >100 | – | – | 21 |
| NC(=O)[C@H]1CCCCN1C(=O)c1nn(CC2CCCCC2)c2ccccc12 [18n] | 112 ± 4 | >100 | – | – | 26 |
| COc1ccc2c(c1)c(CCN1CCOCC1)c(C)n2C(=O)c1cccc(Cl)c1Cl [GW405833, reference compound] | 5.8 ± 0.4 | 822 | 4770 ± 110 | – | – |
| CCc1c(C(=O)NN2CCCCC2)nn(-c2ccc(Cl)cc2Cl)c1-c1ccc(Br)cc1 [Surinabant, reference compound] | 400 ± 6 | 0.0075 | 3 ± 0.2 | – | – |
